Laboratory results from paper PMC11178545, “Alkynyl nicotinamides show antileukemic activity in drug-resistant acute myeloid leukemia” (The Journal of Clinical Investigation, 2024).
Where “and” joins values, the source holds several entries; their conditions need not be identical. Equal entries are not always repeated. Where two headings read alike, the source gives them in different places.

How the values were obtained:
[1] = test system: BaF3 cells expressing FLT3ITD; experiment: BaF3 proliferation, colorimetric WST-1 assay; format: cell-based, murine; conditions: for proliferation, colorimetric assay: BaF3/FLT3 ITD, 48 hours, replicates; for IC50: Mus musculus
[2] = test system: BaF3 cells expressing FLT3ITD-D835Y; experiment: BaF3 proliferation, colorimetric WST-1 assay; conditions: for proliferation, colorimetric assay: BaF3/FLT3 ITD-D835Y, 48 hours, replicates; for IC50: Mus musculus, BaF3, read-out: IC50, growth inhibition
[3] = test system: BaF3 cells transduced with Flt3ITD/ITD, with IL3; experiment: BaF3 Flt3ITD/ITD proliferation in the presence of IL3 (Supplementary Figure 3A); conditions: replicates
[4] = concentration 0.016 (unit not given)
[5] = concentration 0.08 (unit not given)
[6] = concentration 0.4 (unit not given)
[7] = concentration 2 (unit not given)
[8] = concentration 10 (unit not given)
[9] = concentration 50 (unit not given)
[10] = concentration 250 (unit not given)
[11] = concentration 1000 (unit not given)
[12] = concentration 5000 (unit not given)
[13] = concentration 0.08 (unit not given), listed as Midostuarin
[14] = concentration 0.4 (unit not given), listed as Midostuarin
[15] = concentration 2 (unit not given), listed as Midostuarin
[16] = concentration 10 (unit not given), listed as Midostuarin
[17] = concentration 50 (unit not given), listed as Midostuarin
[18] = concentration 250 (unit not given), listed as Midostuarin
[19] = concentration 1000 (unit not given), listed as Midostuarin

Row | SMILES | proliferation, colorimetric assay [1, 4] | proliferation, colorimetric assay [1, 5] | proliferation, colorimetric assay [1, 6] | proliferation, colorimetric assay [1, 7] | proliferation, colorimetric assay [1, 8] | proliferation, colorimetric assay [1, 9] | proliferation, colorimetric assay [1, 10] | proliferation, colorimetric assay [2, 4] | proliferation, colorimetric assay [2, 5] | proliferation, colorimetric assay [2, 6] | proliferation, colorimetric assay [2, 7] | proliferation, colorimetric assay [2, 8] | proliferation, colorimetric assay [2, 9] | proliferation, colorimetric assay [2, 10] | proliferation, colorimetric assay [2, 11] | IC50 [2] [nM] | Supplementary Figure 3A - BaF3-ITD+IL3 proliferation [3, 4] | Supplementary Figure 3A - BaF3-ITD+IL3 proliferation [3, 5] | Supplementary Figure 3A - BaF3-ITD+IL3 proliferation [3, 6] | Supplementary Figure 3A - BaF3-ITD+IL3 proliferation [3, 7] | also measured
1 | Cc1ccc(C(=O)Nc2ccc(CN3CCN(C)CC3)c(C(F)(F)F)c2)cc1C#Cc1cnc2cccnn12 [Ponatinib] | 103.303 and 29.4843 and 104.802 and 107.771 | 103.551 and 112.425 and 114.204 | 63.9851 and 109.481 and 101.917 | 12.349 and 96.4027 and 63.939 and 105.862 | 7.628 and 22.9278 and 11.2521 and 38.4511 | 2.92 and 5.376 and 0.7258 and 6.47 | 5.173 and 2.723 and -0.4582 and 0.3438 | 105.632 | 110.397 and 108.415 and 100.457 | 112.735 and 103.362 and 108.642 | 92.8711 and 101.44 and 100.79 | 111.954 and 107.659 | 78.5183 and 101.652 and 95.7414 | 19.3842 and 49.6264 and 16.1584 | 2.173 and 0.6094 | 162 | 100.2 | 100.413 | 94.562 | 103.021 and 110.146 and 131.879 | IC50 ([1]; BaF3, read-out: IC50, growth inhibition): 2.54 nM; Supplementary Figure 3A - BaF3-ITD+IL3 proliferation [3, 8]: 104.504 and 106.518 and 133.143; Supplementary Figure 3A - BaF3-ITD+IL3 proliferation [3, 9]: 106.029 and 102.109 and 134.35; Supplementary Figure 3A - BaF3-ITD+IL3 proliferation [3, 10]: 109.055 and 106.007 and 134.452; Supplementary Figure 3A - BaF3-ITD+IL3 proliferation [3, 11]: 75.4094 and 10.3894; Supplementary Figure 3A - BaF3-ITD+IL3 proliferation [3, 12]: 0.9902 and -0.5808
2 | CNC(=O)c1cc(Oc2ccc(NC(=O)Nc3ccc(Cl)c(C(F)(F)F)c3)cc2)ccn1 [Sorafenib] | 16.3815 and 107.167 and 106.617 and 105.393 | 11.5881 and 112.929 and 104.573 and 131.213 | 10.6541 and 113.594 and 9.4402 and 110.22 | 98.6784 and 107.329 and 5.2213 and 125.689 | 18.373 and 31.6289 and 5.419 and 106.507 | 7.163 and 11.5817 and 3.098 and 23.7431 | 5.383 and 5.798 and 3.082 and 8.355 | 94.7245 | 78.2586 and 100.59 and 93.5618 | 71.3463 and 101.258 and 87.9764 | 114.498 and 101.128 and 64.2837 | 112.637 and 109.063 and 80.4355 | 116.564 and 100.156 and 98.1229 | 119.18 and 103.897 and 90.2769 | 83.0213 and 52.2833 | 1100 | 102.183 | 99.8176 | 106.455 | 107.595 and 105.229 and 115.278 | IC50 ([1]; BaF3 FLT3ITD, read-out: IC50, growth inhibition): 0.9 nM; Supplementary Figure 3A - BaF3-ITD+IL3 proliferation [3, 8]: 111.02 and 105.412 and 136.419; Supplementary Figure 3A - BaF3-ITD+IL3 proliferation [3, 9]: 101.081 and 115.196 and 123.039; Supplementary Figure 3A - BaF3-ITD+IL3 proliferation [3, 10]: 102.541 and 117.007 and 139.808; Supplementary Figure 3A - BaF3-ITD+IL3 proliferation [3, 11]: 122.84 and 135.916; Supplementary Figure 3A - BaF3-ITD+IL3 proliferation [3, 12]: 77.5171 and 4.823
3 | CO[C@@H]1[C@H](N(C)C(=O)c2ccccc2)C[C@H]2O[C@]1(C)n1c3ccccc3c3c4c(c5c6ccccc6n2c5c31)C(=O)NC4 [Midostaurin] | – | – | – | – | – | – | – | 103.305 | – | – | – | – | – | – | – | – | 91.5686 | – | 100.9 | – | proliferation, colorimetric assay ([1]; concentration 0.016 (unit not given), listed as Midostuarin): 100.822 and 110.628 and 104.388; proliferation, colorimetric assay [1, 13]: 99.3158 and 113.294 and 110.094 and 38.1922; proliferation, colorimetric assay [1, 14]: 103.096 and 110.499 and 104.386 and 61.929; proliferation, colorimetric assay [1, 15]: 104.186 and 115.142 and 102.467 and 142.341; proliferation, colorimetric assay [1, 16]: 37.6324 and 34.6342 and 45.0183 and 96.6129; proliferation, colorimetric assay [1, 17]: 6.377 and 12.3055 and 3.243 and 9.898; proliferation, colorimetric assay [1, 18]: 0.5457 and 1.807 and -0.6585 and 0.387; proliferation, colorimetric assay [2, 13]: 108.476 and 93.9081; proliferation, colorimetric assay [2, 14]: 108.102 and 98.6805 and 100.719; proliferation, colorimetric assay [2, 15]: 111.763 and 100.839 and 106.043; proliferation, colorimetric assay [2, 16]: 46.6696 and 71.6598 and 33.3064; proliferation, colorimetric assay [2, 17]: 14.4574 and 14.3192 and 6.786; proliferation, colorimetric assay [2, 18]: 11.4376 and 9.499 and 3.744; proliferation, colorimetric assay [2, 19]: 3.105 and 1.155; Supplementary Figure 3A - BaF3-ITD+IL3 proliferation [3, 15]: 105.72 and 98.3726 and 124.683; Supplementary Figure 3A - BaF3-ITD+IL3 proliferation [3, 16]: 110.807 and 113.1 and 132.819; Supplementary Figure 3A - BaF3-ITD+IL3 proliferation [3, 17]: 106.186 and 111.038 and 133.216; Supplementary Figure 3A - BaF3-ITD+IL3 proliferation [3, 18]: 110.669 and 139.596; Supplementary Figure 3A - BaF3-ITD+IL3 proliferation [3, 19]: 9.826 and 146.156; Supplementary Figure 3A - BaF3-ITD+IL3 proliferation ([3]; concentration 5000 (unit not given), listed as Midostuarin): 3.94 and -0.5106
